The results in this text go back to patent US10286056B2, “Adjuvant nanoemulsions with crystallisation inhibitors” (GLAXOSMITHKLINE BIOLOGICALS S.A., priority 2011, dated 2019).

A short description of this data set: log P (partition coefficient in 1-octanol and water). The data set is classed as physicochemical. The conditions noted are these: 1-octanol/water, pH 7.4. The source says:
Emulsions of the invention are useful for formulating lipophilic pharmacological agents (LPAs) for in vivo use. Such LPAs include, but are not limited to, vitamins (e.g. vitamins A, D, E and K and their salts/esters, such as α-tocopherol succinate), carotenoids (e.g. β-carotene), fatty acids (e.g. arachidonic acid, ecosapentaenoic acid docosahexaenoic acid), pyrimidines (e.g. 5-hydroxy-4,6-dimethyl-2-(6-phenylhexyl)aminopyrimidine), ansamitocins, angiotensin II receptor antagonists (e.g. candesartan cilexetil), and immunopotentiators (e.g. muramyl dipeptides).
For example, to deliver a 25 μg dose in a typical oil-in-water emulsion would require the agonist to have a squalene solubility of 10 mg/ml, which is about 2.5× higher than can be achieved.

In the case of `Cc1ccc2c(c1)nc(N)c1ncc(CCc3ccc(OCCC(C)C)cc3C)cc12` [compound ‘A’], the log partition coefficient (logP) worked out at 7.5.

As a reminder, the logP is a log measure of how a compound divides between an organic and an aqueous phase.
